We go through 16 molecules from PubChem BioAssay (NCI).

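Method: 48-hour compound exposure of cells in 96-well plates, five concentrations, linear interpolation of endpoints. GI50 marks 50% less growth. At the TGI there is no net growth.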

Common to all, as to test: NCI anticancer screen, dose series, 48 h
Experiment [1] has as its system EKVX NSCLC.
For experiment [2], the system named is HCT-116 colon.
For experiment [3], the system named is OVCAR-3 ovarian.
Experiment [4] relates to OVCAR-8 ovarian.
Experiment [5] has as its system SN12C renal.
Experiment [6] deals with SR leukemia.
For experiment [7], the system named is COLO 205 colon.
Experiment [8] has as its system M14 melanoma.
Experiment [9] relates to NCI-H522 lung.

Take `CCOC(=O)c1ccc(N2C(=O)Cc3ccccc3C2=O)cc1`: the TGI in experiment [1], in experiment [2], in experiment [3], in [4], in experiment [5] and in experiment [6] was above 100 µM in each case.
Turning to `O=C1C(=O)N(c2nccs2)C(=O)C(=O)C1c1nc2ccccc2s1`, the TGI in [7], in [1], in [2], in [8], in [3] and in experiment [4] was above 100 µM each time. This molecule gave a TGI in experiment [5] above 100 µM.
In the case of `CCN(CC)c1ccc(N=C2C=C(Cl)C(=O)c3ncccc32)c(C)c1`, the TGI in experiment [7] is 15.8 µM; in [1], 36.8 µM; in [2] it was 11.6 µM; in experiment [8] it was 8.31 µM; in experiment [3], 5.04 µM; in experiment [4], above 100 µM. For the same molecule, the TGI in experiment [5] came to 55.1 µM.
As to `COc1nc2c(nc(N)n2C2OCC(O)C(O)C2O)c(=O)n1C` (centres undefined), the TGI in experiment [7], in experiment [1], in [2], in experiment [8], in experiment [9] and in experiment [3] was above 100 µM each time. Further, the TGI in experiment [4], in [5] and in experiment [6] was above 100 µM in each case.
Turning to `O=C(Nc1ccc(Br)cc1)C(=O)C(C(=O)c1ccccc1F)C1OC(=O)c2ccccc21` (centres undefined), the TGI in experiment [7] is 45.2 µM; in [1], above 100 µM; in experiment [2], 35.6 µM; in experiment [8], 43.9 µM; in experiment [9], 51.6 µM; in [3], above 100 µM. For the same molecule, the TGI turned out to be 70.3 µM in experiment [4] and 85 µM in experiment [5].
With `CC1(C(=O)O)CCOc2ccccc21` (centres undefined), the TGI in [7], in experiment [1], in experiment [2], in [8], in [3] and in experiment [4] was above 100 µM throughout. The TGI in experiment [5] and in [6] was above 100 µM throughout.
`COc1cc(/C=C\c2ccc(Br)cc2)cc(OC)c1OC`: the TGI in experiment [7] is 1.21 µM; in experiment [1], above 100 µM; in experiment [2], above 100 µM; in [9] it was 0.00151 µM; in experiment [5], above 100 µM; in [6] it was 10.6 µM.
Take `Cc1c(-c2nnc(-c3ccccc3)o2)c(=O)n(-c2ccccc2)n1C`: the TGI in [7], in experiment [1], in [2], in experiment [8], in experiment [9] and in experiment [3] was above 100 µM in each case. Also, the TGI in [4], in experiment [5] and in experiment [6] was above 100 µM each time.
In the case of `N#Cc1ccc(Oc2cccc(Oc3ccccc3)c2)cc1C#N`, the GI50 in experiment [7], in experiment [8], in [4] and in experiment [5] was above 100 µM in each case. Further, the TGI in experiment [7], in experiment [1], in [2], in [8], in experiment [9] and in experiment [3] was above 100 µM each time. Further, the TGI in [4] and in experiment [5] was above 100 µM throughout.
For the molecule `COC12CCC(C(C(=O)c3ccccc3)=C1C(=O)c1ccccc1)C(O)C2` (centres undefined), the TGI in experiment [7], in [1], in experiment [2], in experiment [8], in experiment [9] and in experiment [3] was above 100 µM each time. Also, the TGI in experiment [4], in [5] and in experiment [6] was above 100 µM throughout.
On to `O=C(Nc1nc2ccc([N+](=O)[O-])cc2s1)C(=O)C(C(=O)c1ccncc1)C1OC(=O)c2ccccc21` (centres undefined), for which the TGI in experiment [7], in experiment [1], in experiment [2], in experiment [8], in experiment [3] and in [4] was above 100 µM in each case. The TGI in experiment [5] and in [6] was above 100 µM in each case.
As to `CS/C(c1ccccc1)=[N+](\[O-])Cc1ccccc1`, the TGI in experiment [7], in experiment [1], in [2], in experiment [8], in [9] and in experiment [3] was above 100 µM throughout. Further, the figures for the TGI in [4], in [5] and in experiment [6] were above 100 µM, above 100 µM and 43.3 µM, respectively.
As to `CC(NC(=O)C(=O)N/N=C1\C[C@@H](c2ccccc2)Nc2ccccc21)c1ccccc1` (some centres undefined), the TGI in [7], in experiment [1], in [2], in [8], in experiment [9] and in experiment [3] was above 100 µM throughout. In addition, the TGI in experiment [4] and in experiment [5] was above 100 µM each time.
As to `O=C(N/C(=C\c1ccc(/C=C(\NC(=O)c2ccccc2)c2nc3ccccc3s2)cc1)c1nc2ccccc2s1)c1ccccc1`, the TGI was found to be 16.5 µM in [7]; 14.5 µM in experiment [1]; 30.9 µM in experiment [2]; 11.9 µM in [8]; 4.1 µM in experiment [9]; 12.1 µM in [3]. Besides, the values for the TGI in experiment [4] and in experiment [5] were 5.51 µM and 12.6 µM, respectively.
With `O=C(O)c1ccccc1N=Nc1ccc2oc(=O)c(C(=O)Nc3ccccc3)cc2c1`, the TGI in experiment [7] is above 100 µM; in experiment [1], above 100 µM; in [2], above 100 µM; in [8], above 100 µM; in [9], above 100 µM; in experiment [3] it was 70.4 µM. Further, the TGI in experiment [4] and in experiment [5] was above 100 µM each time.
Take `COc1ccc(-c2ccc(-c3ccc(C(=N)N)cn3)o2)cc1Cl`: the GI50 was 1.66 µM in experiment [7]; 2 µM in [1]; 1.67 µM in experiment [8]; 1.85 µM in experiment [9]; 2.24 µM in [3]; 1.77 µM in experiment [5]. Moreover, the TGI in experiment [7] turned out to be 3.18 µM; in experiment [1], 4.26 µM; in experiment [8] it was 3.19 µM; in [9], 3.59 µM; in experiment [3] it was 4.79 µM; in [5] it was 3.45 µM.
